In the NIST ThermoML archive (doi:10.1016/j.jct.2007.10.007):
± gives the expanded uncertainty stated by the source. Values belong to the compound of their own block, whether it stands above or below them.

Assay: mn = molality of the nth substance listed, in mol/kg
Details: 298.15 K, 101 kPa, Liquid

SMILES: Cl.c1c[nH]cn1 [imidazolium chloride] + O
- mass density (m1 = 0.04296): 998.24 ± 0.51 kg/m3
- speed of sound (m1 = 0.04296): 1500.1 ± 1.5 m/s
- mass density (m1 = 0.1027): 999.89 ± 0.5 kg/m3
- speed of sound (m1 = 0.1027): 1503.8 ± 1.5 m/s
- mass density (m1 = 0.153): 1001.26 ± 0.51 kg/m3
- speed of sound (m1 = 0.153): 1507 ± 1.5 m/s
- mass density (m1 = 0.1976): 1002.47 ± 0.52 kg/m3
- speed of sound (m1 = 0.1976): 1509.7 ± 1.5 m/s
- mass density (m1 = 0.2417): 1003.72 ± 0.53 kg/m3
- speed of sound (m1 = 0.2417): 1512.4 ± 1.5 m/s
- mass density (m1 = 0.2914): 1004.65 ± 0.53 kg/m3
- speed of sound (m1 = 0.2914): 1515.8 ± 1.5 m/s
- mass density (m1 = 0.34): 1006.45 ± 0.55 kg/m3
- speed of sound (m1 = 0.34): 1517.9 ± 1.5 m/s
- mass density (m1 = 0.3893): 1007.62 ± 0.55 kg/m3
- speed of sound (m1 = 0.3893): 1521.2 ± 1.5 m/s
- mass density (m1 = 0.4495): 1008.96 ± 0.56 kg/m3
- speed of sound (m1 = 0.4495): 1525.2 ± 1.5 m/s
- mass density (m1 = 0.5003): 1010.31 ± 0.57 kg/m3
- speed of sound (m1 = 0.5003): 1527.9 ± 1.5 m/s

SMILES: O [water] + Cl.c1c[nH]cn1
- speed of sound (m2 = 0): 1497.6 ± 1.5 m/s

More lines, now with the values ahead:

- mass density (m1 = 0.05281): 997.72 ± 0.51 kg/m3
- speed of sound (m1 = 0.05281): 1504.8 ± 1.5 m/s
- mass density (m1 = 0.09783): 998.29 ± 0.51 kg/m3
- speed of sound (m1 = 0.09783): 1510.5 ± 1.5 m/s
- mass density (m1 = 0.1433): 998.85 ± 0.51 kg/m3
- speed of sound (m1 = 0.1433): 1516.7 ± 1.5 m/s
- mass density (m1 = 0.1998): 999.56 ± 0.5 kg/m3
- speed of sound (m1 = 0.1998): 1524.4 ± 1.5 m/s
- mass density (m1 = 0.2471): 1000.15 ± 0.5 kg/m3
- speed of sound (m1 = 0.2471): 1530.2 ± 1.5 m/s
- mass density (m1 = 0.2899): 1000.69 ± 0.51 kg/m3
- speed of sound (m1 = 0.2899): 1535.5 ± 1.5 m/s
- mass density (m1 = 0.3173): 1001.04 ± 0.51 kg/m3
- speed of sound (m1 = 0.3173): 1539.1 ± 1.5 m/s
- mass density (m1 = 0.4052): 1002.14 ± 0.52 kg/m3
- speed of sound (m1 = 0.4052): 1549.9 ± 1.5 m/s
- mass density (m1 = 0.422): 1002.35 ± 0.52 kg/m3
- speed of sound (m1 = 0.422): 1551.9 ± 1.5 m/s
- mass density (m1 = 0.4995): 1003.31 ± 0.52 kg/m3
- speed of sound (m1 = 0.4995): 1562.2 ± 1.5 m/s
SMILES: CCCCn1cc[n+](C)c1.[Cl-] [1-butyl-3-methylimidazolium chloride] + O

- mass density (m1 = 0.05234): 998.29 ± 0.51 kg/m3
- speed of sound (m1 = 0.05234): 1501.6 ± 1.5 m/s
- mass density (m1 = 0.09548): 999.3 ± 0.51 kg/m3
- speed of sound (m1 = 0.09548): 1504.7 ± 1.5 m/s
- mass density (m1 = 0.147): 1000.49 ± 0.5 kg/m3
- speed of sound (m1 = 0.147): 1508.5 ± 1.5 m/s
- mass density (m1 = 0.1998): 1001.69 ± 0.51 kg/m3
- speed of sound (m1 = 0.1998): 1512.5 ± 1.5 m/s
- mass density (m1 = 0.2472): 1002.77 ± 0.52 kg/m3
- speed of sound (m1 = 0.2472): 1516 ± 1.5 m/s
- mass density (m1 = 0.3011): 1003.97 ± 0.53 kg/m3
- speed of sound (m1 = 0.3011): 1519.9 ± 1.5 m/s
- mass density (m1 = 0.3555): 1005.18 ± 0.54 kg/m3
- speed of sound (m1 = 0.3555): 1523.9 ± 1.5 m/s
- mass density (m1 = 0.3994): 1006.13 ± 0.54 kg/m3
- speed of sound (m1 = 0.3994): 1526.3 ± 1.5 m/s
- mass density (m1 = 0.4551): 1007.35 ± 0.55 kg/m3
- speed of sound (m1 = 0.4551): 1530.5 ± 1.5 m/s
- mass density (m1 = 0.5139): 1008.62 ± 0.56 kg/m3
- speed of sound (m1 = 0.5139): 1534.6 ± 1.5 m/s
SMILES: Cl.Cn1ccnc1 [1-methylimidazolium chloride] + O

- speed of sound (m2 = 0): 1497.6 ± 1.5 m/s
SMILES: O [water] + CCCCn1cc[n+](C)c1.[Cl-]

- speed of sound (m2 = 0): 1497.6 ± 1.5 m/s
SMILES: O [water] + Cl.Cn1ccnc1
